From PMC10934158, “Constituents of Chimaphila japonica and Their Diuretic Activity” (Molecules, 2024)
Values joined by “and” are separate entries in the source; they are usually repeats but may differ in a detail not shown here. Equal entries are not always repeated. Where two headings read alike, the source gives them in different places. Marks after values point to notes of the source that are not given here.

Legend:
Assay type in all cases: cell-based
[1] = test system: Na^+ transport in MDCK cells; experiment: In vitro diuretic activity assay: Na+ transport across MDCK cells in Transwell chamber; details: for inhibition at 100 µM: Canis lupus familiaris; for inhibition at 100 µM / Transport Inhibition Rate (%) Na^+: compounds 100 µmol/L, hydrochlorothiazide 200 µmol/L, mean ± SD of three replicates; for Diuretic activity (overall, in words): in vitro Na^+ and Cl^− transport bioassays
Description: (§1) Generally, the transport of Na^+ and Cl^− plays an essential role in glomerular filtration and tubular reabsorption.
(§2) Log-phase MDCK cells were seeded in the upper chambers of Transwell plates (4 × 10^4 cells/well), and 800 µL of complete culture medium was added to the lower chambers. After 24 h of incubation at 37 ℃, the electrical resistance of the upper chamber cells was measured one by one (R = (Rcell − Rblank) × 0.04π). When the electrical resistance of the upper chamber cells reached ≥ 300 Ω cm^2, the upper chamber medium was removed and replaced with the drug solution. The blank group (given normal saline), experimental group (1, 4–12, 100 µmol/L), and hydrochlorothiazide group (200 µmol/L) were set, and each well was treated with 200 µL of the corresponding solution. The cells were then further incubated for 24 h. After that, the upper and lower chamber fluids were removed, and 200 µL of NaCl solution (21 mg/mL) was added to the upper chamber, while 800 µL of DMEM was added to the lower chamber for continued incubation. At 1, 2, and 3 h, 50 µL of the lower chamber fluid was taken, and the OD values were measured using Na^+ and Cl^− detection kits. The transport inhibition rate (%) was calculated as follows: transport inhibition rate (%) = (ODblank − ODexperimental)/ODblank × 100%.

MDCK cells = experiment: MTT cytotoxicity assay on MDCK cells; details: 100 µmol/L, 24 h incubation, mean ± SD of three replicates; for inhibition at 100 µM: Canis lupus familiaris, read-out: Growth Inhibition Rate (%)
Description: First, we used the MTT method to examine the cytotoxicity of the compounds (1–12) on MDCK cells at a concentration of 100 µmol/L, and the results are shown in Table 5.
Each compound was evaluated for cytotoxicity on DMCK cells using MTT assays. A 96-well plate containing 1 × 10^4 cells per well was seeded with logarithmic growth-phase DMCK cells, which were then cultured for 24 h in a cell culture incubator. After that, the culture medium was changed to one that included medication (100 µmol/L for the treatment groups, 100 µmol/L for the control group, or 100 µmol/L for the positive control group). In total, 100 µL of the appropriate solution was added to each well, and they were then incubated for a further 24 h. After that, culture media were taken out and changed for a DMEM solution that included 20 µL of MTT (5 mg/mL). After incubating for 4 h, the liquid in each well was removed and replaced with 150 µL of DMSO, which was shaken for 10 min to ensure thorough mixing. The absorbance at 490 nm was measured to determine the optical density (OD) of each well. The cell growth inhibition rate was calculated as follows: cell growth inhibition rate (%) = (ODBlank − ODExperimental)/ODBlank × 100%.

[2] = test system: Cl^− transport in MDCK cells; experiment: In vitro diuretic activity assay: Cl− transport across MDCK cells in Transwell chamber; details: for inhibition at 100 µM: Canis lupus familiaris, read-out: Transport Inhibition Rate (%) Cl^−; for Inhibitory activity on Cl^− transport compared to blank group (in words): 100 µmol/L, significance vs blank group
Description: as §1, §2

[3] = MDCK Transwell, read-out: Transport Inhibition Rate (%) Na^+
[4] = MDCK Transwell, compounds 100 µmol/L, hydrochlorothiazide 200 µmol/L, mean ± SD of three replicates
[5] = MDCK, read-out: Transport Inhibition Rate (%) Na^+, MDCK Transwell

## Cc1cc(O)ccc1O[C@H]1O[C@@H](CO)[C@H](O)[C@@H](O[C@H]2O[C@@H](CO)[C@H](O)[C@@H](O)[C@@H]2O)[C@@H]1O [Compound 1, 3′-O-β-D-glucopyranosyl-isohomoarbutin]
[1]; [3]
  inhibition at 100 µM: -11.7 ± 1.14%
MDCK cells
  inhibition at 100 µM: 4.89 ± 0.05%
[2]; [4]
  inhibition at 100 µM: 9.44 ± 0.78%

## Cc1cc(O)ccc1O[C@H]1O[C@@H](CO)[C@H](O[C@H]2O[C@@H](CO)[C@H](O)[C@@H](O)[C@@H]2O)[C@@H](O)[C@@H]1O [Compound 2, 4′-O-β-D-glucopyranosyl-isohomoarbutin]
MDCK cells
  inhibition at 100 µM: 29.48 ± 0.12%

## Cc1cc(O)c(-c2cc(O[C@@H]3O[C@H](CO)[C@@H](O)[C@H](O)[C@H]3O)c(C)cc2O)cc1O[C@@H]1O[C@H](CO)[C@@H](O)[C@H](O)[C@H]1O [Compound 3, 5-5′-dehydro-di (2-methyl-4-hydroxy-phenyl-1-O-β-D-glucopyranoside)]
MDCK cells
  inhibition at 100 µM: 23.31 ± 0.13%

## C/C(=C\Cc1c(O)ccc(O[C@H]2O[C@@H](CO)[C@H](O)[C@@H](O)[C@@H]2O)c1C)CO [Compound 5, 3-[(E)-4-hydroxy-3-methyl-2-butenyl]-4-hydroxy-2-methylphenyl-O-β-D-glucopyranoside]
[1]; [3]
  inhibition at 100 µM: 7.61 ± 0.71%
MDCK cells
  inhibition at 100 µM: 4.08 ± 0.03%
[2]
  Inhibitory activity on Cl^− transport compared to blank group (in words): good inhibitory activity
[2]; [4]
  inhibition at 100 µM: 4.57 ± 0.65%

## Cc1cc(O)ccc1O[C@@H]1O[C@H](CO)[C@@H](O)[C@H](O)[C@H]1O [Compound 6, isohomoarbutin]
[1]; [3]
  inhibition at 100 µM: 10.2 ± 1.24%
MDCK cells
  inhibition at 100 µM: < 0%
[2]; [4]
  inhibition at 100 µM: 12.2 ± 1.33%

## O=c1c(O)c(-c2ccc(O)c(O)c2)oc2cc(O)cc(O)c12 [Compound 7, quercetin]
[1]; Figure 3
  Na^+ transport inhibition rate at 1 h: more than 30.24%
[1]; [5]
  inhibition at 100 µM: > 20%
[1]; MDCK Transwell
  Transport Inhibition Rate (%) Na^+: 35.95 ± 1.42 ^e %
[1]
  Diuretic activity (overall, in words): potent diuretic activity
MDCK cells
  inhibition at 100 µM: < 0%
[2]; MDCK
  inhibition at 100 µM: 20.7 ± 0.74%
[2]; second hour (peak), Figure 4
  Cl^− transport inhibition rate at peak, second hour: higher than 20%

## C[C@@H]1O[C@@H](Oc2c(-c3ccc(O)c(O)c3)oc3cc(O)cc(O)c3c2=O)[C@H](O)[C@H](O)[C@H]1O [Compound 8, quercitrin]
[1]; [5]
  inhibition at 100 µM: 18.5 ± 1.02%
MDCK cells
  inhibition at 100 µM: < 0%
[2]; MDCK
  inhibition at 100 µM: 0.65 ± 1.45%

## O=c1c(O[C@@H]2O[C@H](CO)[C@@H](O)[C@H](O)[C@H]2O)c(-c2ccc(O)c(O)c2)oc2cc(O)cc(O)c12 [Compound 9, isoquercitrin]
[1]; [5]
  inhibition at 100 µM: 6.22 ± 0.53%
MDCK cells
  inhibition at 100 µM: < 0%
[2]; MDCK
  inhibition at 100 µM: -8.36 ± 2.6%

## O=c1c(O[C@@H]2O[C@H](CO)[C@H](O)[C@H](O)[C@H]2O)c(-c2ccc(O)c(O)c2)oc2cc(O)cc(O)c12 [Compound 10, hyperoside]
[1]; [5]
  inhibition at 100 µM: 1.82 ± 0.81%
MDCK cells
  inhibition at 100 µM: < 0%
[2]; MDCK
  inhibition at 100 µM: -13.2 ± 1.89%

## O=c1c(O)c(-c2ccc(O)cc2)oc2cc(O)cc(O)c12 [Compound 11, kaempferol]
[1]; 3 h, Figure 3
  Na^+ transport suppression rate at 3 h compared with hydrochlorothiazide (in words): exceeds that of hydrochlorothiazide
[1]; [5]
  inhibition at 100 µM: > 20%
[1]; MDCK Transwell
  Transport Inhibition Rate (%) Na^+: 28.81± 1.04 ^e %
[1]
  Diuretic activity (overall, in words): potent diuretic activity
MDCK cells
  inhibition at 100 µM: < 0%
[2]; MDCK
  inhibition at 100 µM: 27.7 ± 1.18%

## O=c1c(O[C@@H]2O[C@@H](CO)[C@H](O)[C@H]2O)c(-c2ccc(O)cc2)oc2cc(O)cc(O)c12 [Compound 12, juglanin]
[1]; [5]
  inhibition at 100 µM: 14.2 ± 0.69%
MDCK cells
  inhibition at 100 µM: < 0%
[2]
  Inhibitory activity on Cl^− transport compared to blank group (in words): general inhibitory activity
[2]; MDCK
  inhibition at 100 µM: 3.27 ± 0.31%

## NS(=O)(=O)c1cc2c(cc1Cl)NCNS2(=O)=O [Hyd, hydrochlorothiazide, reference compound]
[1]; Figure 3
  Na^+ transport inhibition rate at 1 h: 27.91%
[1]; MDCK Transwell
  Transport Inhibition Rate (%) Na^+: 39.74 ± 0.64 ^e %
MDCK cells
  inhibition at 100 µM: < 0%
[2]; [4]
  Transport Inhibition Rate (%) Cl^−: 23.42 ± 0.87 ^e %

## (1R,3R,4R)-3-methylcyclohexanol β-D-glucopyranoside [Compound 4]
[1]; MDCK Transwell
  Transport Inhibition Rate (%) Na^+: higher than 20% and 21.13 ± 0.89 ^e %
[1]
  Diuretic activity (overall, in words): potent diuretic activity
MDCK cells
  Growth Inhibition Rate (%): 4.89 ± 0.05%
[2]; [4]
  Transport Inhibition Rate (%) Cl^−: 12.23 ± 0.18 ^e %
